The source of these data is paper PMC9549030, “Structural basis for specific inhibition of the deubiquitinase UCHL1” (Nature Communications, 2022).

The target of one assay is T1, UCHL3 L168F (Homo sapiens, UniProt P15374, L168F).
T1 sequence (P15374 1-230 L168F): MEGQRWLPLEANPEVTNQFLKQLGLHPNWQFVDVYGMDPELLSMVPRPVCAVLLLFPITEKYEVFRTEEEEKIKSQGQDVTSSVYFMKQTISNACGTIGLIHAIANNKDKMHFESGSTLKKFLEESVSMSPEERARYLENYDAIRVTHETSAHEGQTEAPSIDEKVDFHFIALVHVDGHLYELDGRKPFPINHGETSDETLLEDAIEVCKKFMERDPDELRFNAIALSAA
Put plainly: Ub-Rhodamine (Ubiquitin rhodamine cleavage) assay. It is filed as biochemical.

In a further assay the target is T2, UCHL3 A11I+L168F (Homo sapiens, UniProt P15374, A11I/L168F).
T2 sequence (P15374 1-230 A11I/L168F): T1 sequence (P15374 1-230 L168F) with A11I
The assay can be described thus: Ub-Rhodamine (Ubiquitin rhodamine cleavage) assay. Type of assay: biochemical.

Assay [1] deals with T3, UCHL1 (Homo sapiens, UniProt P09936).
T3 sequence (P09936 1-223): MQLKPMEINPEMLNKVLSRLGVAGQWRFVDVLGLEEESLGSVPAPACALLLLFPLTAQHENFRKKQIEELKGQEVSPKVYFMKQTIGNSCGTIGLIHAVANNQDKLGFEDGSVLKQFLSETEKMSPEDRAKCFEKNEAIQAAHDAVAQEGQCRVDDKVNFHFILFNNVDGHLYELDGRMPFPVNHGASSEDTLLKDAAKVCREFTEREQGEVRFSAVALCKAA
Put plainly: Thermal shift assay. Type of assay: binding. As to conditions: UCHL1 1 µM, 1 h, replicates. The method in brief:
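Protein at 4 µM (4x stock) in PBS with 5 mM DTT was mixed 1:1 with 4x compound and incubated 1 h. SYPRO Orange was then added. Thermal denaturation was monitored over 20–90 °C in 0.3 °C steps with a 5 s hold before each read.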

In a further assay the test system is DUBs in HEK293 lysate. Put plainly: Activity-based protein profiling in the lysate with Ub-VS competition. Type of assay: binding, human. As to conditions: 1 µM, 1 h. How it is done:
Cells (4 × 10^6) were seeded in 10 cm dishes and grown to 90% confluency. The medium was aspirated, cells were washed with ice-cold PBS, treated with 600 µL ABP lysis buffer (1% (v/v) IGEPAL, 50 mM Tris, 150 mM NaCl, 5% glycerol, pH 8, cOmplete protease inhibitor cocktail), and incubated on ice for 15 min. The lysed cells were scrapped off the dish, cleared by centrifugation, and the protein concentration was determined via a Bradford assay. […] Each compound was diluted to a 2x concentration in PBS buffer from a 10 mM stock in DMSO (final concentration: 1 µM). Then each compound dilution or a DMSO dilution was mixed with cell lysate and incubated for one hour at room temperature. […] Samples were resolved by SDS-PAGE using a 4–12% Bis-Tris gel (Invitrogen, NuPAGE) with MES SDS running buffer for 50 min at 180 V. Fluorescence was read out using the Alexa564 (λex/em 520–545/577–613 nm, for TAMRA) and Alexa680 (λex/em 650–675/700–730 nm, for the PageRuler Prestained NIR Protein Ladder (Thermo Scientific)) channels on a ChemiDoc MP Imaging System (Bio-Rad).

A further assay deals with T4, UCHL1 in HEK293 cells.
T4 construct: Western blot analysis of endogenous UCHL1 labeled with HA-Ub-VS after treatment of HEK293 cells; endogenous in cells; host or cells: HEK293
Put plainly: Cellular Ub-probe (HA-Ub-VS) competition, inhibition of cellular UCHL1. Type of assay: cell-based, human. The following applies: HEK293 cells. The method in brief:
(§1)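 Cell lysates adjusted to 2 mg/ml total protein, labeled with 1 µM HA-Ub-VS probe for 30 min at 37 °C, then quenched in LDS buffer. Probe labeling of UCHL1 read out by SDS-PAGE and western blot with HRP chemiluminescence.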

Another assay relates to T5, UCHL1 in U-87 MG cells.
T5 construct: Western blot analysis of endogenous UCHL1 labeled with HA-Ub-VS after treatment of U-87 MG cells; endogenous in cells; host or cells: U-87 MG
The assay is described as above. As to conditions: 1 or 24 h. It is filed as cell-based, human. The method in brief: as §1

Assay [2] deals with T3, UCHL1. Put plainly: Identification of probe-labeled proteins with mass spectrometry (pulldown enrichment). The following applies: HEK293 cells, 24 h.
Protocol: Cells were cultured, treated with a compound, and lysed as described above. The cell lysate was diluted to a protein concentration of 2 mg/mL with ABP lysis buffer. 1 µL of each click reagent (see above) were added to each sample, followed by an incubation period of one hour at room temperature with protection from light. The sample volume was adjusted to 1000 µL with PBS and 30 µL of a NeutrAvidin (Thermo Fisher) bead slurry (prewashed 3x with PBS) were added to each sample. The samples were incubated for one hour to overnight on a rotator at 15 rpm at 4 °C. Beads were pelleted by centrifugation, the supernatant was discarded, and the beads were washed six times (1x with ½x lysis buffer, followed by five washes with PBS). After removing the washing solution completely, the beads were subjected to reduction with dithiothreitol (1 mM), alkylation with chloroacetamide (5 mM) and on-bead digestion with first LysC (Serva Biotech, 1 h, 37 °C), followed by trypsin (Sigma Aldrich, 1 h, overnight). Tryptic peptides were desalted with C18 StageTips and analyzed by nano-HPLC-MS/MS.
An Ultimate 3000 RSLC nano-HPLC system and a Hybrid-Orbitrap mass spectrometer (Q Exactive Plus) equipped with a nano-spray source (Thermo Fisher Scientific) was used. The protein fragments were enriched on a C18 PepMap 100 column (5 μm, 100 Å, 300 μm ID * 5 mm, Dionex) using 0.1% TFA, at a flow rate of 30 μL/min, for 5 min and separated on a C18 PepMap 100 column (3 μm, 100 Å, 75 μm ID × 50 cm) using a linear gradient (5–30% ACN/H2O + 0.1% formic acid over 90 min) with a flow rate of 300 nL/min. […] Signals in the mass range of m/z 300 to 1650 were acquired at a resolution of 70,000 for the full scan, followed by ten high-energy collision-dissociation (HCD) MS/MS scans of the most intense at least doubly charged ions at a resolution of 17,500. Proteins were relatively quantified by using MaxQuant[60] v.2.0.3.1, including the Andromeda search algorithm and searching the Homo sapiens reference proteome of the UniProt database. Briefly, an MS/MS ion search was performed for enzymatic trypsin cleavage, allowing two missed cleavages. Carbamidomethylation was set as a fixed protein modification, and oxidation of methionine and acetylation of the N-terminus were set as variable modifications. The mass accuracy was set to 20 parts per million (ppm) for the first search and to 4.5 ppm for the second search. The false discovery rates for peptide and protein identification were set to 0.01. Only proteins for which at least two peptides were quantified were chosen for further validation. Relative quantification of proteins was performed by using the label-free quantification algorithm implemented in MaxQuant. Statistical data analysis of pulldown samples was performed using Perseus[61] v.1.6.15.0, including proteins which were identified in at least four of the five biological replicates which were used per condition. Label-free quantification (LFQ) intensities were log-transformed (log2); replicate samples were grouped together. Pairwise comparisons of groups were performed separately. Missing values were imputed using small normally distributed values (width 0.3, downshift 1.8) and a two-sided t-test (s0 = 5, FDR = 0.001) was performed.

Positions count from the first letter of the chain named. “And” between values parts separate entries of the source, which are not always exact repeats. Equal values may be shown once.

What is called IC50 is the concentration that inhibits the measured activity by half. Higher therefore signals a need for much substance. With `C#CCCCNC(=O)c1ccc(-n2cnc(NC(=O)[C@H]3CCN(C#N)C3)c2)cc1` [GK13S], the figures for the concentration for half-maximal inhibition (IC50) against UCHL3 L168F and against UCHL3 A11I+L168F were 33 ± 11 µM and 11 ± 2 µM, respectively. Besides, the “melting temperature (Tm) of UCHL1” value on UCHL1 [1] (compound 1.25 µM) is 59.1 and 58.5; on UCHL1 [1] (compound 2.5 µM), 58.8 and 59.1; on UCHL1 [1] (compound 5 µM), 59.1. In addition, in the assay on DUBs in HEK293 lysate, the “DUB engagement (Ub-VS competitive labeling)” value is given as “Ubiquitin-probe competitive band of approx. 30 kDa”. Further, the “inhibition of cellular UCHL1” value with UCHL1 in HEK293 cells (1 µM, 24 h) is “near complete inhibition”; in the assay with UCHL1 in HEK293 cells (5 µM, 24 h), “Full inhibition”; with UCHL1 in HEK293 cells (1 and 5 µM, 1 h and 24 h (Supplementary Fig. 5f)) it was “time- and concentration-dependent inhibition”; with UCHL1 in U-87 MG cells, “complete inhibition”. Further, the “change in log2 enrichment values of UCHL1, GK13S vs GK13R” value at UCHL1 [2] (1 µM) is given as 2. For the same compound, the “change in log2 enrichment values of UCHL1, GK13S vs GK16S” value at UCHL1 [2] (1 µM) is listed as 5. Moreover, the “difference in UCHL1 enrichment, GK13S vs GK13R” value on UCHL1 [2] (1 µM) is recorded as “fourfold”. Moreover, the “difference in UCHL1 enrichment, GK13S vs GK16S” value at UCHL1 [2] (1 µM) is recorded as over 32 fold. Also, the “enrichment factor of UCHL1 (log2, vs DMSO)” value on UCHL1 [2] (1 µM) is 8 and > 8. For the same compound, the “enrichment of UCHL1 vs DMSO” value on UCHL1 [2] (5 µM) is ~ 3000 fold. On UCHL1 [2] (5 µM), the “logarithmic enrichment factor of UCHL1 (log2, vs DMSO)” value is 11.5.
